# Key:
# [1] = water solubility at 15° C; format: physicochemical; conditions: for solubility: water
# [2] = system: human lymphoblastoid cells (E.B. -3 cells, Burkitt lymphoma); experiment: inhibiting action on the growth of human lymphoblastoid cells (E.B.-3, Burkitt lymphoma) in suspension culture, cell count; format: cell-based; conditions: 100 μg per ml medium, added on the fourth day of cultivation; R.P.M.I. 1640 + 30% fetal calf serum, 37° C; vs non-added culture
# Method: Human lymphoblastoid cells (E.B. -3 cells, Burkitt lymphoma) were grown in suspension culture and maintained in 2 ml R.P.M.I. 1640 medium (manufactured by Flow Laboratories Inc., U.S.A.) supplemented with 30% fetal calf serum, placed in Petri's dish, diameter 20 mm at a temperature of 37° C.
# The numbers of human lymphoblastoid cells were counted according to the method used for counting the numbers of leucocyte with Burke's blood count platelet.
# [3] = 15° C, parts or percentages by weight
"solubility [1, 3] [µg/mL]","water solubility, in words ([1]; temperature not stated)","water solubility [1, 3]",Molecule,inhibiting action on the growth of human lymphoblastoid cells [2]
~1000,–,–,COc1cc(O[C@@H]2O[C@H](CO)[C@@H](O)[C@H](O)[C@H]2O)ccc1/C=C/C(=O)c1ccc(O)cc1 [echinatin-4-glucoside],–
~5000,–,–,"COc1cc(O[C@@H]2O[C@H](CO)[C@@H](O)[C@H](O)[C@H]2O)ccc1/C=C/C(=O)c1ccc(O[C@@H]2O[C@H](CO)[C@@H](O)[C@H](O)[C@H]2O)cc1 [echinatin-4,4'-diglucoside]",–
< 1,extremely low water solubility,–,COc1cc(O)ccc1/C=C/C(=O)c1ccc(O)cc1 [echinatin],–
–,–,approximately 1%,echinatin-4'-glucoside,possesses an inhibiting action on the growth of human lymphoblastoid cells

# From US4067142A, “Echinatin glycosides and their preparation” (Kabushiki Kaisha Hayashibara Seibutsu Kagaku Kenkyujo, priority 1975, dated 1978)
